{"source": "PubChem BioAssay AID1963973", "about": "(Molecular Pharmacology Branch, DTP, NCI, 2024);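 also: spheroids exposed to agents for 7 days before the viability read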", "tested_on": "883617-216-R-J1-PDC tumor spheroids, viability", "experiment": "Anticancer human tumor 883617-216-R-J1-PDC patient-derived bladder carcinoma cell line growth inhibition [PI3K]", "settings": "spheroids with HUVEC and MSC; for IC50: curve of first compound; for viability, T/C: stronger effect = lower value", "how_it_was_run": "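Complex 3D spheroids (cancer cells + endothelial HUVEC + mesenchymal stem cells); drug pairs of targeted agent x inavolisib/alpelisib/duvelisib/copanlisib; half-log series from ~Cmax, max 10 microM if Cmax unknown; endpoint viability.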"}
{"smiles": "Cn1cnc2c(F)c(Nc3ccc(Br)cc3Cl)c(C(=O)NOCCO)cc21", "note": "+ Cc1nc(NC(=O)N2CCCC2C(N)=O)sc1-c1ccnc(C(C)(C)C(F)(F)F)c1", "values": [{"measurement": "IC50", "setting": "second compound 0.0316 µM", "value": 49.5, "unit": "nM"}, {"measurement": "IC50", "setting": "second compound 0.1 µM", "value": 22.4, "unit": "nM"}, {"measurement": "IC50", "setting": "second compound 0.316 µM", "value": "< 9.49", "unit": "nM"}, {"measurement": "IC50", "setting": "second compound 1 µM", "value": "< 9.49", "unit": "nM"}, {"measurement": "IC50", "setting": "second compound 3.16 µM", "value": "< 9.49", "unit": "nM"}, {"measurement": "IC50", "setting": "second compound 10 µM", "value": "< 9.49", "unit": "nM"}, {"measurement": "viability, T/C", "setting": "second compound 0.0316 µM, first compound 0.00949 µM", "value": 64.4, "unit": "%"}, {"measurement": "viability, T/C", "setting": "second compound 0.0316 µM, first compound 0.03 µM", "value": 48.8, "unit": "%"}, {"measurement": "viability, T/C", "setting": "second compound 0.0316 µM, first compound 0.0949 µM", "value": 41.5, "unit": "%"}, {"measurement": "viability, T/C", "setting": "second compound 0.0316 µM, first compound 0.3 µM", "value": 44.2, "unit": "%"}, {"measurement": "viability, T/C", "setting": "second compound 0.0316 µM, first compound 0.949 µM", "value": 30.8, "unit": "%"}, {"measurement": "viability, T/C", "setting": "second compound 0.0316 µM, first compound 3 µM", "value": 19.5, "unit": "%"}, {"measurement": "viability, T/C", "setting": "second compound 0.1 µM, first compound 0.00949 µM", "value": 62.3, "unit": "%"}, {"measurement": "viability, T/C", "setting": "second compound 0.1 µM, first compound 0.03 µM", "value": 45.1, "unit": "%"}, {"measurement": "viability, T/C", "setting": "second compound 0.1 µM, first compound 0.0949 µM", "value": 33.5, "unit": "%"}, {"measurement": "viability, T/C", "setting": "second compound 0.1 µM, first compound 0.3 µM", "value": 27.7, "unit": "%"}, {"measurement": "viability, T/C", "setting": "second compound 0.1 µM, first compound 0.949 µM", "value": 23.2, "unit": "%"}, {"measurement": "viability, T/C", "setting": "second compound 0.1 µM, first compound 3 µM", "value": 15.9, "unit": "%"}, {"measurement": "viability, T/C", "setting": "second compound 0.316 µM, first compound 0.00949 µM", "value": 41.4, "unit": "%"}, {"measurement": "viability, T/C", "setting": "second compound 0.316 µM, first compound 0.03 µM", "value": 27.9, "unit": "%"}, {"measurement": "viability, T/C", "setting": "second compound 0.316 µM, first compound 0.0949 µM", "value": 25.8, "unit": "%"}, {"measurement": "viability, T/C", "setting": "second compound 0.316 µM, first compound 0.3 µM", "value": 20.7, "unit": "%"}, {"measurement": "viability, T/C", "setting": "second compound 0.316 µM, first compound 0.949 µM", "value": 16.8, "unit": "%"}, {"measurement": "viability, T/C", "setting": "second compound 0.316 µM, first compound 3 µM", "value": 9.49, "unit": "%"}, {"measurement": "viability, T/C", "setting": "second compound 1 µM, first compound 0.00949 µM", "value": 18.6, "unit": "%"}, {"measurement": "viability, T/C", "setting": "second compound 1 µM, first compound 0.03 µM", "value": 19, "unit": "%"}, {"measurement": "viability, T/C", "setting": "second compound 1 µM, first compound 0.0949 µM", "value": 15.9, "unit": "%"}, {"measurement": "viability, T/C", "setting": "second compound 1 µM, first compound 0.3 µM", "value": 14, "unit": "%"}, {"measurement": "viability, T/C", "setting": "second compound 1 µM, first compound 0.949 µM", "value": 11.9, "unit": "%"}, {"measurement": "viability, T/C", "setting": "second compound 1 µM, first compound 3 µM", "value": 4.92, "unit": "%"}, {"measurement": "viability, T/C", "setting": "second compound 3.16 µM, first compound 0.00949 µM", "value": 11.2, "unit": "%"}, {"measurement": "viability, T/C", "setting": "second compound 3.16 µM, first compound 0.03 µM", "value": 8.7, "unit": "%"}, {"measurement": "viability, T/C", "setting": "second compound 3.16 µM, first compound 0.0949 µM", "value": 10.1, "unit": "%"}, {"measurement": "viability, T/C", "setting": "second compound 3.16 µM, first compound 0.3 µM", "value": 7.89, "unit": "%"}, {"measurement": "viability, T/C", "setting": "second compound 3.16 µM, first compound 0.949 µM", "value": 4.92, "unit": "%"}, {"measurement": "viability, T/C", "setting": "second compound 3.16 µM, first compound 3 µM", "value": 2.19, "unit": "%"}, {"measurement": "viability, T/C", "setting": "second compound 10 µM, first compound 0.00949 µM", "value": 4.41, "unit": "%"}, {"measurement": "viability, T/C", "setting": "second compound 10 µM, first compound 0.03 µM", "value": 3.98, "unit": "%"}, {"measurement": "viability, T/C", "setting": "second compound 10 µM, first compound 0.0949 µM", "value": 3.69, "unit": "%"}, {"measurement": "viability, T/C", "setting": "second compound 10 µM, first compound 0.3 µM", "value": 3.12, "unit": "%"}, {"measurement": "viability, T/C", "setting": "second compound 10 µM, first compound 0.949 µM", "value": 2.43, "unit": "%"}, {"measurement": "viability, T/C", "setting": "second compound 10 µM, first compound 3 µM", "value": 1.07, "unit": "%"}]}
